Results on 26 compounds are retold here after US12533339B2, “Small molecule antiviral drug treatment for human papillomavirus infections” (THE TRUSTEES OF INDIANA UNIVERSITY, priority 2020, dated 2026).

For one assay, the target named is E6C51S/E6AP (Human papillomavirus type 16, UniProt P03126, C58S). Briefly: E6/E6AP binding assay (amylose-bound MBP-16E6, E6AP-BAP activity), C51S 16E6. Details: species or system HPV-16. The conditions noted are these: for % Inhibition @ 10 μM E6C51S/E6AP: 10 μM compound; for % Inhibition @ 100 μM E6C51S/E6AP: 100 μM compound.
E6C51S/E6AP, sequence (P03126 whole entry C58S, looked up): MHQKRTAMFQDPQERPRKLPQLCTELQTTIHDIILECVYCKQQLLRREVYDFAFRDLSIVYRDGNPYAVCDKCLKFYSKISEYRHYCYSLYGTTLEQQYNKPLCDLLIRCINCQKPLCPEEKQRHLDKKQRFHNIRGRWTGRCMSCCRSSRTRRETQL
Assay [1] addresses T1, E6 WT/E6AP (Human papillomavirus type 16, UniProt P03126). Kind of assay: biochemical. The conditions noted are these: WT 16E6; for inhibition at 10 µM: 10 μM compound; for inhibition at 100 µM: 100 μM compound. The class given is binding.
The target of assay [2] is T1, E6 WT/E6AP. Briefly: biochemical. The conditions noted are these: for Emax: 24 h, read-out: FP maximal inhibition (max %) E6 WT/E6AP; for IC50: FP IC50 at 24 h (μM) E6 WT/E6AP. In kind it is binding.

T1 sequence (P03126 8-158): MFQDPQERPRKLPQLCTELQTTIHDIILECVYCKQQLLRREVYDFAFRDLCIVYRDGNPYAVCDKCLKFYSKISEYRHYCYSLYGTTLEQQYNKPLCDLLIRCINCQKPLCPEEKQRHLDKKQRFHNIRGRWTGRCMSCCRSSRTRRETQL

Broadly, the inhibition is the relative decrease from the control value, in per cent. In the case of `C=CC(=O)N1CCN(c2nc(N(C)Cc3cccc(F)c3)nc3sc4c(c23)CCCC4)CC1` [EIN-141, 1-(4-(2-((3-fluorobenzyl)(methyl)amino)-5,6,7,8-tetrahydrobenzo[4,5]thieno[2,3-d]pyrimidin-4-yl)piperazin-1-yl)prop-2-en-1-one], on E6C51S/E6AP, the “% Inhibition @ 10 μM E6C51S/E6AP” value was determined as 0% and the “% Inhibition @ 100 μM E6C51S/E6AP” value was determined as 0%. On E6 WT/E6AP [1], the inhibition at 10 µM came to 0% and the inhibition at 100 µM came to 18 ± 5%.
For orientation: IC50 means the midpoint of a concentration-inhibition curve. `C=CC(=O)N1CCN(c2nc(CCc3cccc(F)c3)nc3ccccc23)CC1` [EIN-158, 1-(4-(2-(3-fluorophenethyl)quinazolin-4-yl)piperazin-1-yl)prop-2-en-1-one]: on E6 WT/E6AP [2], the Emax came out at 100% and it took 52.8 ± 2.8 µM to reach half-maximal inhibition (IC50).
On to `CC1CN(C(=O)CN2CCc3sccc3C2c2cccc(F)c2)CCN1C(=O)CCl` (centres unmarked) [EIN-120, 2-chloro-1-(4-(2-(4-(3-fluorophenyl)-6,7-dihydrothieno[3,2-c]pyridin-5(4H)-yl)acetyl)-2-methylpiperazin-1-yl)ethan-1-one], for which, at E6C51S/E6AP, the “% Inhibition @ 10 μM E6C51S/E6AP” value was determined as 12 ± 5% and the “% Inhibition @ 100 μM E6C51S/E6AP” value was determined as 34 ± 2%. For the same compound, at E6 WT/E6AP [1], the inhibition at 10 µM is 18 ± 5% and the inhibition at 100 µM was found to be 63 ± 1%.
Consider `O=C(CCl)N1CCCN(C(=O)CN2CCc3sccc3C2c2cccc(F)c2)CC1` (centres unmarked) [EIN-119, 2-chloro-1-(4-(2-(4-(3-fluorophenyl)-6,7-dihydrothieno[3,2-c]pyridin-5(4H)-yl)acetyl)-1,4-diazepan-1-yl)ethan-1-one], for which, on E6C51S/E6AP, the “% Inhibition @ 10 μM E6C51S/E6AP” value came out at 9 ± 7% and the “% Inhibition @ 100 μM E6C51S/E6AP” value is recorded as 34 ± 7%. Also, on E6 WT/E6AP [1], the inhibition at 10 µM was found to be 33 ± 6% and the inhibition at 100 µM was found to be 61 ± 1%.
`Cc1ccccc1C1c2ccsc2CCN1C(C)C(=O)N1CCCN(C(=O)CCl)CC1` (centres unmarked) [EIN-117, 1-(4-(2-chloroacetyl)-1,4-diazepan-1-yl)-2-(4-(o-tolyl)-6,7-dihydrothieno[3,2-c]pyridin-5(4H)-yl)propan-1-one]: on E6 WT/E6AP [1], the inhibition at 10 µM was found to be 17 ± 1% and the inhibition at 100 µM was 33 ± 7%.
For the compound `Cc1ccccc1C1c2ccsc2CCN1CC(=O)N1CCN(C(=O)CCl)C(C)C1` (centres unmarked) [EIN-118, 2-chloro-1-(2-methyl-4-(2-(4-(o-tolyl)-6,7-dihydrothieno[3,2-c]pyridin-5(4H)-yl)acetyl)piperazin-1-yl)ethan-1-one], at E6C51S/E6AP, the “% Inhibition @ 10 μM E6C51S/E6AP” value is 12 ± 11% and the “% Inhibition @ 100 μM E6C51S/E6AP” value is recorded as 79 ± 5%. Besides, at E6 WT/E6AP [1], the inhibition at 10 µM turned out to be 49 ± 5% and the inhibition at 100 µM amounted to 98 ± 2%.
On to `Cc1sc2nc(C3CC3)nc(N3CCN(C(=O)CCl)CC3)c2c1C` [EIN-129, 2-chloro-1-(4-(2-cyclopropyl-5,6-dimethylthieno[2,3-d]pyrimidin-4-yl)piperazin-1-yl)ethan-1-one], for which, on E6C51S/E6AP, the “% Inhibition @ 10 μM E6C51S/E6AP” value is 57 ± 12% and the “% Inhibition @ 100 μM E6C51S/E6AP” value was determined as 103 ± 5%. For the same compound, at E6 WT/E6AP [1], the inhibition at 10 µM was found to be 81 ± 16% and the inhibition at 100 µM was determined as 119 ± 13%.
On to `C=CC(=O)N1CCN(c2nc(-c3ccccc3OC)nc3ccccc23)CC1` [EIN-160, 1-(4-(2-(2-methoxyphenyl)quinazolin-4-yl)piperazin-1-yl)prop-2-en-1-one], for which, on E6 WT/E6AP [2], the Emax came out at 100% and half-maximal inhibition (IC50) required 128 ± 2.3 µM.
For `C=CC(=O)N1CCN(c2nc(-c3ccc(OC)cc3F)nc3ccccc23)CC1` [EIN-164, 1-(4-(2-(2-fluoro-4-methoxyphenyl)quinazolin-4-yl)piperazin-1-yl)prop-2-en-1-one], in that order: 100% and 22.9 ± 1.3 µM.
With `C=CC(=O)N1CCN(c2nc(-c3ccc(OC)cc3)nc3ccccc23)CC1` [EIN-161, 1-(4-(2-(4-methoxyphenyl)quinazolin-4-yl)piperazin-1-yl)prop-2-en-1-one], on E6 WT/E6AP [2], the Emax turned out to be 91% and the 50% inhibitory concentration (IC50) is 13.3 ± 1.9 µM.
The like results for `C=CC(=O)N1CCN(c2nc(-c3ccc(OC4CC4)cc3)nc3ccccc23)CC1` [EIN-163, 1-(4-(2-(4-cyclopropoxyphenyl)quinazolin-4-yl)piperazin-1-yl)prop-2-en-1-one] were, in that order, 100% and 41.6 ± 2.8 µM.
Take `Cc1sc2nc(CCc3ccccc3)nc(N3CCN(C(=O)CCl)CC3)c2c1C` [EIN-128, 2-chloro-1-(4-(5,6-dimethyl-2-phenethylthieno[2,3-d]pyrimidin-4-yl)piperazin-1-yl)ethan-1-one]: at E6C51S/E6AP, the “% Inhibition @ 10 μM E6C51S/E6AP” value turned out to be 19 ± 8% and the “% Inhibition @ 100 μM E6C51S/E6AP” value is 60 ± 3%. In addition, on E6 WT/E6AP [1], the inhibition at 10 µM came to 47 ± 14% and the inhibition at 100 µM is 106 ± 11%.
The like results for `C=CC(=O)N1CCN(c2nc(N(C)Cc3ccc(F)cc3)nc3sc4c(c23)CCCC4)CC1` [EIN-142, 1-(4-(2-((4-fluorobenzyl)(methyl)amino)-5,6,7,8-tetrahydrobenzo[4,5]thieno[2,3-d]pyrimidin-4-yl)piperazin-1-yl)prop-2-en-1-one] were, in that order, 0%, 0%, 17 ± 4% and 28 ± 3%.
As for `C=CC(=O)N1CCN(c2nc(CCc3cccc(OC)c3)nc3sc4c(c23)CCCC4)CC1` [EIN-151, 1-(4-(2-(3-methoxyphenethyl)-5,6,7,8-tetrahydrobenzo[4,5]thieno[2,3-d]pyrimidin-4-yl)piperazin-1-yl)prop-2-en-1-one], at E6 WT/E6AP [2] (at 24 h), the “FP maximal inhibition (max %) E6 WT/E6AP” value is reported as “(max 71%)”.
For `C=CC(=O)N1CCN(c2nc(CCc3ccc(F)cc3)nc3ccccc23)CC1` [EIN-153, 1-(4-(2-(4-fluorophenethyl)quinazolin-4-yl)piperazin-1-yl)prop-2-en-1-one], on E6 WT/E6AP [2], the Emax was determined as 100% and the IC50 stood at 27.7 ± 1.3 µM.
Take `CCCCc1nc(N2CCN(C(=O)CCl)CC2)c2c3c(sc2n1)CC(C)CC3` (centres unmarked) [EIN-124, 1-(4-(2-butyl-7-methyl-5,6,7,8-tetrahydrobenzo[4,5]thieno[2,3-d]pyrimidin-4-yl)piperazin-1-yl)-2-chloroethan-1-one]: at E6C51S/E6AP, the “% Inhibition @ 10 μM E6C51S/E6AP” value came to 49 ± 11% and the “% Inhibition @ 100 μM E6C51S/E6AP” value was 90 ± 5%. At E6 WT/E6AP [1], the inhibition at 10 µM is 71 ± 13% and the inhibition at 100 µM was found to be 113 ± 13%.
As for `O=C(CCl)N1CCN(c2nc(Cc3ccccc3)nc3sc4c(c23)CCCC4)CC1` [EIN-127, 1-(4-(2-benzyl-5,6,7,8-tetrahydrobenzo[4,5]thieno[2,3-d]pyrimidin-4-yl)piperazin-1-yl)-2-chloroethan-1-one], on E6C51S/E6AP, the “% Inhibition @ 10 μM E6C51S/E6AP” value was found to be 41 ± 5% and the “% Inhibition @ 100 μM E6C51S/E6AP” value worked out at 79 ± 4%. On E6 WT/E6AP [1], the inhibition at 10 µM is 57 ± 14% and the inhibition at 100 µM worked out at 106 ± 11%.
For `C=CC(=O)N1CCN(c2nc(N(C)Cc3ccccc3F)nc3sc4c(c23)CCCC4)CC1` [EIN-140, 1-(4-(2-((2-fluorobenzyl)(methyl)amino)-5,6,7,8-tetrahydrobenzo[4,5]thieno[2,3-d]pyrimidin-4-yl)piperazin-1-yl)prop-2-en-1-one], in that order: 0%, 0%, 6 ± 6% and 17 ± 4%.
`C=CC(=O)N1CCN(c2nc(-c3ccc(OC(F)(F)F)cc3)nc3ccccc23)CC1` [EIN-162, 1-(4-(2-(4-(trifluoroniethoxy)phenyl)quinazolin-4-yl)piperazin-1-yl)prop-2-en-1-one]: on E6 WT/E6AP [2], the Emax was 100% and the half-inhibitory concentration (IC50) amounted to 105 ± 13.7 µM.
On to `C=CC(=O)N1CCN(c2nc(-c3ccc(OC)cc3)nc3cccnc23)CC1` [EIN-165, 1-(4-(2-(4-methoxyphenyl)pyrido[3,2-d]pyrimidin-4-yl)piperazin-1-yl)prop-2-en-1-one], for which, at E6 WT/E6AP [2], the Emax amounted to 100% and the IC50 stood at 38.2 ± 2.1 µM.
For the compound `C=CC(=O)N1CCN(c2nc(-c3cccc(OC)c3)nc3ccccc23)CC1` [EIN-159, 1-(4-(2-(3-methoxyphenyl)quinazolin-4-yl)piperazin-1-yl)prop-2-en-1-one], at E6 WT/E6AP [2], the Emax was determined as 91% and the IC50 was 14.5 ± 1.3 µM.
For the compound `CCCCc1nc(N2CCN(C(=O)CCl)CC2)c2c3c(sc2n1)CCCC3` [EIN-126, 1-(4-(2-butyl-5,6,7,8-tetrahydrobenzo[4,5]thieno[2,3-d]pyrimidin-4-yl)piperazin-1-yl)-2-chloroethan-1-one], on E6C51S/E6AP, the “% Inhibition @ 10 μM E6C51S/E6AP” value came out at 12 ± 5% and the “% Inhibition @ 100 μM E6C51S/E6AP” value is reported as 34 ± 2%. For the same compound, at E6 WT/E6AP [1], the inhibition at 10 µM turned out to be 18 ± 5% and the inhibition at 100 µM came out at 63 ± 1%.
With `CCCc1nc(N2CCN(C(=O)CCl)CC2)c2c3c(sc2n1)CC(C)CC3` (centres unmarked) [EIN-130, 2-chloro-1-(4-(7-methyl-2-propyl-5,6,7,8-tetrahydrobenzo[4,5]thieno[2,3-d]pyrimidin-4-yl)piperazin-1-yl)ethan-1-one], on E6C51S/E6AP, the “% Inhibition @ 10 μM E6C51S/E6AP” value was 52 ± 12% and the “% Inhibition @ 100 μM E6C51S/E6AP” value was determined as 85 ± 6%. Besides, at E6 WT/E6AP [1], the inhibition at 10 µM is 46 ± 9% and the inhibition at 100 µM is 100 ± 9%.
For `COc1ccc(C2c3ccsc3CCN2CC(=O)N2CCN(C(=O)CCl)C(C)C2)cc1` (centres unmarked) [EIN-121, 2-chloro-1-(4-(2-(4-(4-methoxyphenyl)-6,7-dihydrothieno[3,2-c]pyridin-5(4H)-yl)acetyl)-2-methylpiperazin-1-yl)ethan-1-one], on E6 WT/E6AP [1], the inhibition at 10 µM was found to be 24 ± 2% and the inhibition at 100 µM worked out at 52 ± 1%.
In the case of `Cc1nc(N2CCN(C(=O)CCl)CC2)c2c3c(sc2n1)CCCC3` [EIN-123, 2-chloro-1-(4-(2-methyl-5,6,7,8-tetrahydrobenzo[4,5]thieno[2,3-d]pyrimidin-4-yl)piperazin-1-yl)ethan-1-one], at E6C51S/E6AP, the “% Inhibition @ 10 μM E6C51S/E6AP” value is 44 ± 10% and the “% Inhibition @ 100 μM E6C51S/E6AP” value amounted to 90 ± 6%. Further, on E6 WT/E6AP [1], the inhibition at 10 µM was determined as 58 ± 12% and the inhibition at 100 µM turned out to be 114 ± 11%.
`CCc1nc(N2CCN(C(=O)CCl)CC2)c2c3c(sc2n1)CCCC3` [EIN-131, 2-chloro-1-(4-(2-ethyl-5,6,7,8-tetrahydrobenzo[4,5]thieno[2,3-d]pyrimidin-4-yl)piperazin-1-yl)ethan-1-one]: on E6 WT/E6AP [1], the inhibition at 10 µM came out at 24 ± 3% and the inhibition at 100 µM turned out to be 65 ± 3%.
